# Compound: CC1=CC(=C(N1C2=CC=C(C=C2)Cl)C)C(=O)CN3CCCCC3 [IU1-47]
# Assay: relative viability (nuclei count vs DMSO), 5 days (fraction); higher = more cells survive
# Details: 0.08 µM
# In short: (§1)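 Nuclei counted with MetaXpress define viability as the ratio of treated to vehicle wells, given as a median across plates. The lung cancer cell lines were in 1536-well plates, pinned with five √10-spaced library-drug doses and imaged at 4× after 5 days and Hoechst staining. Plates passed with control CV below 25% and at least one doubling.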
row,Cell Line,relative viability
1,LK-2,1.23
2,NCI-H2087,1.04
3,SK-MES-1,1.12
4,H3255,1.11
5,COR-L23,1.1
6,COR-L 105,0.95
7,IA-LM,1.11
8,LOU-NH91,1.09
9,NCI-H2170,1.24
10,NCI-H2405,1.07
11,HOP-62,1.09
12,HCC-44,0.964
13,A549,1.06
14,LU99A,0.977
15,BEN,1.02
16,HARA,0.964
17,HCC-78,0.97
18,NCI-H322M,0.972
19,LCLC-97TM1,0.954
20,NCI-H2009,1
21,A-427,1.03
22,NCI-H661,1.09
23,NCI-H1734,1.06
24,NCI-H460,1.04
25,NCI-H2347,1.11
26,SK-LU-1,1.14
27,NCI-H1395,0.879
28,201T,0.961

# Same assay, conditions: 0.253 µM
row,Cell Line,relative viability
1,NCI-H2085,0.998
2,Calu-6,1.06
3,HCC-366,0.969
4,NCI-H1666,1.02
5,NCI-H596,0.775
6,LK-2,1.05
7,NCI-H2087,1.01
8,SK-MES-1,1.22
9,H3255,1.16
10,COR-L23,1.08
11,COR-L 105,0.901
12,IA-LM,1.08
13,LOU-NH91,1.04
14,NCI-H2170,1.15
15,NCI-H2405,1.06
16,HOP-62,1.05
17,HCC-44,1.03

row,Cell Line,relative viability
1,A549,1.07
2,LU99A,0.898
3,BEN,1.01
4,HARA,0.935
5,HCC-78,0.953
6,NCI-H322M,1.02
7,LCLC-97TM1,1.22
8,NCI-H2009,1
9,A-427,1.04
10,NCI-H661,1.07
11,NCI-H1734,1.07
12,NCI-H460,0.987
13,NCI-H2347,1.02
14,SK-LU-1,1.17
15,NCI-H1395,0.953
16,201T,0.99

# Same assay, conditions: 0.8 µM
row,Cell Line,relative viability
1,NCI-H2085,0.973
2,Calu-6,1.07
3,HCC-366,1.04
4,NCI-H1666,0.968
5,NCI-H596,1.14
6,LK-2,0.988
7,NCI-H2087,1.06
8,SK-MES-1,1.02
9,H3255,1.02
10,COR-L23,1.15
11,COR-L 105,1.02
12,IA-LM,1.08
13,LOU-NH91,0.964
14,NCI-H2170,1.07
15,NCI-H2405,1.03
16,HOP-62,1.09
17,HCC-44,1.03

row,Cell Line,relative viability
1,A549,0.978
2,LU99A,1.1
3,BEN,1.12
4,HARA,1.09
5,HCC-78,1.03
6,NCI-H322M,0.919
7,LCLC-97TM1,1.06
8,NCI-H2009,1.02
9,A-427,1.12
10,NCI-H661,1.12
11,NCI-H1734,0.981
12,NCI-H460,1.08
13,NCI-H2347,1.04
14,SK-LU-1,1.05
15,NCI-H1395,0.884
16,201T,1.07

# Same assay, conditions: 2.53 µM
row,Cell Line,relative viability
1,NCI-H2085,1.01
2,Calu-6,1.04
3,HCC-366,1.04
4,NCI-H1666,0.957
5,NCI-H596,1.03
6,LK-2,0.905
7,NCI-H2087,0.924
8,SK-MES-1,1.1
9,H3255,0.74
10,COR-L23,0.938
11,COR-L 105,0.899
12,IA-LM,1.01
13,LOU-NH91,1.04
14,NCI-H2170,0.996
15,NCI-H2405,0.863
16,HOP-62,0.779

row,Cell Line,relative viability
1,HCC-44,0.945
2,A549,0.937
3,LU99A,0.953
4,BEN,0.781
5,HARA,0.68
6,HCC-78,0.874
7,NCI-H322M,0.922
8,LCLC-97TM1,0.589
9,NCI-H2009,0.842
10,A-427,0.549
11,NCI-H661,0.929
12,NCI-H460,0.955
13,NCI-H2347,0.828
14,SK-LU-1,0.98
15,NCI-H1395,0.534
16,201T,0.53

# Same assay, conditions: 8 µM
row,Cell Line,relative viability
1,NCI-H2085,0.954
2,Calu-6,1.02
3,HCC-366,0.879
4,NCI-H1666,1.01
5,NCI-H596,0.801
6,LK-2,0.934
7,NCI-H2087,1
8,SK-MES-1,1.06
9,H3255,0.975
10,COR-L23,1.15
11,COR-L 105,0.91
12,IA-LM,0.884
13,LOU-NH91,0.952
14,NCI-H2170,1.04
15,NCI-H2405,1.01
16,HOP-62,1.09
17,HCC-44,1.02

row,Cell Line,relative viability
1,A549,1.01
2,LU99A,0.972
3,BEN,0.971
4,HARA,0.817
5,HCC-78,0.889
6,NCI-H322M,0.925
7,LCLC-97TM1,0.834
8,NCI-H2009,1.04
9,A-427,0.956
10,NCI-H661,1.07
11,NCI-H1734,0.99
12,NCI-H460,1.01
13,NCI-H2347,1.01
14,SK-LU-1,1.06
15,NCI-H1395,0.791
16,201T,0.941

# Compound: Cc1nc(C(=O)NCC(=O)O)c(O)c2ccc(Oc3ccccc3)cc12 [FG-4592]
# Assay: as above
# Details: 0.08 µM
# In short: as §1
row,Cell Line,relative viability
1,NCI-H2085,1
2,Calu-6,0.945
3,HCC-366,0.798
4,NCI-H1666,0.979
5,NCI-H596,0.794
6,LK-2,0.78
7,NCI-H2087,0.98
8,SK-MES-1,0.991
9,H3255,1.02
10,COR-L23,0.97
11,COR-L 105,0.921
12,IA-LM,0.913
13,LOU-NH91,0.942
14,NCI-H2170,0.911
15,NCI-H2405,0.869
16,HOP-62,0.997
17,HCC-44,1.01

row,Cell Line,relative viability
1,A549,0.979
2,LU99A,0.91
3,BEN,0.787
4,HARA,0.782
5,HCC-78,0.893
6,NCI-H322M,0.812
7,LCLC-97TM1,0.918
8,NCI-H2009,1.03
9,A-427,0.923
10,NCI-H661,0.926
11,NCI-H1734,0.824
12,NCI-H460,0.965
13,NCI-H2347,0.873
14,SK-LU-1,0.882
15,NCI-H1395,0.86
16,201T,0.941

# Same assay, conditions: 0.253 µM
row,Cell Line,relative viability
1,NCI-H2085,0.955
2,Calu-6,0.995
3,HCC-366,1
4,NCI-H1666,0.939
5,NCI-H596,0.955
6,LK-2,0.918
7,NCI-H2087,0.988
8,SK-MES-1,0.939
9,H3255,0.87
10,COR-L23,1.01
11,COR-L 105,0.938
12,IA-LM,0.933
13,LOU-NH91,0.869
14,NCI-H2170,0.975
15,NCI-H2405,0.826
16,HOP-62,0.957
17,HCC-44,0.939

row,Cell Line,relative viability
1,A549,0.86
2,LU99A,0.862
3,BEN,0.734
4,HARA,0.752
5,HCC-78,0.746
6,NCI-H322M,0.907
7,LCLC-97TM1,0.901
8,NCI-H2009,0.958
9,A-427,0.916
10,NCI-H661,0.942
11,NCI-H1734,0.939
12,NCI-H460,0.947
13,NCI-H2347,0.738
14,SK-LU-1,0.748
15,NCI-H1395,0.795
16,201T,0.955

# Same assay, conditions: 0.8 µM
row,Cell Line,relative viability
1,NCI-H2085,0.934
2,Calu-6,1.03
3,HCC-366,1.02
4,NCI-H1666,0.953
5,LK-2,0.685
6,NCI-H2087,1.32
7,SK-MES-1,0.969
8,H3255,0.926
9,COR-L23,1.11
10,COR-L 105,0.909
11,IA-LM,0.894
12,LOU-NH91,0.905
13,NCI-H2170,0.851
14,NCI-H2405,0.912
15,HOP-62,0.943
16,HCC-44,0.806

row,Cell Line,relative viability
1,A549,0.974
2,LU99A,0.748
3,BEN,0.822
4,HARA,0.822
5,HCC-78,0.972
6,NCI-H322M,0.844
7,LCLC-97TM1,0.791
8,NCI-H2009,1
9,A-427,0.797
10,NCI-H661,1.11
11,NCI-H1734,0.717
12,NCI-H460,1.03
13,NCI-H2347,0.955
14,SK-LU-1,0.898
15,NCI-H1395,0.672
16,201T,0.974

# Same assay, conditions: 2.53 µM
row,Cell Line,relative viability
1,NCI-H2085,0.965
2,Calu-6,0.975
3,HCC-366,0.964
4,NCI-H1666,0.913
5,NCI-H596,1.03
6,LK-2,0.883
7,NCI-H2087,1.01
8,SK-MES-1,0.981
9,H3255,0.9
10,COR-L23,0.902
11,COR-L 105,0.821
12,IA-LM,0.859
13,LOU-NH91,0.92
14,NCI-H2170,0.921
15,NCI-H2405,0.928
16,HOP-62,0.96
17,HCC-44,1.05

row,Cell Line,relative viability
1,A549,1.02
2,LU99A,0.972
3,BEN,1.03
4,HARA,1.01
5,HCC-78,0.916
6,NCI-H322M,0.897
7,LCLC-97TM1,0.924
8,NCI-H2009,0.902
9,A-427,0.866
10,NCI-H661,0.903
11,NCI-H1734,0.808
12,NCI-H460,1
13,NCI-H2347,0.936
14,SK-LU-1,0.899
15,NCI-H1395,0.975
16,201T,1

# Same assay, conditions: 8 µM
row,Cell Line,relative viability
1,NCI-H2085,1.02
2,Calu-6,1.02
3,HCC-366,1.05
4,NCI-H1666,0.901
5,NCI-H596,0.651
6,LK-2,0.778
7,NCI-H2087,1.13
8,SK-MES-1,0.983
9,H3255,1.08
10,COR-L23,1.03
11,COR-L 105,0.801
12,IA-LM,0.764
13,LOU-NH91,0.96
14,NCI-H2170,0.718
15,NCI-H2405,0.944
16,HOP-62,1.01
17,HCC-44,1.04

row,Cell Line,relative viability
1,A549,0.911
2,LU99A,0.961
3,BEN,0.733
4,HARA,1.13
5,HCC-78,1.01
6,NCI-H322M,0.89
7,LCLC-97TM1,0.873
8,NCI-H2009,0.953
9,A-427,0.897
10,NCI-H661,0.972
11,NCI-H1734,0.876
12,NCI-H460,1.02
13,NCI-H2347,1.05
14,SK-LU-1,0.879
15,NCI-H1395,0.761
16,201T,0.982

# From the supplement of paper PMC10307832
